# Source: patent publication US12686692B2, “KRas G12D inhibitors” (Mirati Therapeutics, Inc., priority 2020, dated 2026)
# Biological target: KRas G12D (Homo sapiens, UniProt P01116, G12D)
# Test: KRas G12D Binding Assay (TR-FRET displacement of labeled tracer)
# Set-up: corresponding to amino acids 1:169, produced at Array BioPharma; biotin (protein is biotinylated)
# Details: TR-FRET displacement of Cy5 labelled tracer, biotinylated GDP-loaded KRAS G12D (aa 1:169), 60 minute incubation at 22° C.
# Procedure: This Example illustrates that exemplary compounds of the present invention bind to KRas G12D and are capable of displacing a labeled tracer ligand occupying the KRas G12D binding site.
# The ability of a compound to bind to KRAS G12D was measured using a TR-FRET displacement assay. Biotinylated GDP-loaded recombinant human KRAS G12D (corresponding to amino acids 1:169, produced at Array BioPharma) was incubated with a custom-made Cy5 labelled tracer, europium labelled streptavidin and compound (2% DMSO final) in buffer (50 mM HEPES [pH 7.5], 5 mM MgCl2, 0.005% Tween-20 & 1 mM DTT). After a 60 minute incubation at 22° C., the reaction was measured using a PerkinElmer EnVision multimode plate reader via TR-FRET dual wavelength detection, and the percent of control (POC) calculated using a ratiometric emission factor. […] The POC values were fit to a 4-parameter logistic curve and the IC50 value was determined as the concentration where the curve crosses 50 POC.
# Chain of KRas G12D (P01116 1-169 isoform P01116-2 G12D): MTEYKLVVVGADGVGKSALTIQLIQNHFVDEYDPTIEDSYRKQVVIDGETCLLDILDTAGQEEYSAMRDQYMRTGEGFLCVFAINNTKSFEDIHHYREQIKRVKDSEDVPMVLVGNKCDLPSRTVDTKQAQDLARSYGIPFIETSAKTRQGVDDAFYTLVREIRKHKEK
row,IC50 [µM],SMILES
1,2.69,"CN1CCC[C@H]1COc1nc2c(c(N3C[C@H]4C[C@@H](CCN)[C@@H](C3)N4)n1)CCN(c1cccc3cccc(Cl)c13)C2 [Example 39, 2-((1R,5S,6R)-3-(7-(8-chloronaphthalen-1-yl)-2-(((S)-1-methylpyrrolidin-2-yl)methoxy)-5,6,7,8-tetrahydropyrido[3,4-d]pyrimidin-4-yl)-3,8-diazabicyclo[3.2.1]octan-6-yl)ethan-1-amine]"
2,0.345,"Clc1ccc2cccc(N3CCc4c(nc(OCC56CCCN5CCC6)nc4N4C[C@H]5CC[C@@H](C4)N5)C3)c2c1Cl [Example 12, 4-((1R,5S)-3,8-diazabicyclo[3.2.1]octan-3-yl)-7-(7,8-dichloronaphthalen-1-yl)-2-((tetrahydro-1H-pyrrolizin-7a(5H)-yl)methoxy)-5,6,7,8-tetrahydropyrido[3,4-d]pyrimidine]"
3,0.807,"CN1CCC[C@H]1COc1nc2c(c(N3C[C@H]4CC[C@@H](C3)N4)n1)CCN(c1cccc3cc(O)cc(Cl)c13)C2 [Example 113, 5-(4-((1R,5S)-3,8-diazabicyclo[3.2.1]octan-3-yl)-2-(((S)-1-methylpyrrolidin-2-yl)methoxy)-5,6-dihydropyrido[3,4-d]pyrimidin-7(8H)-yl)-4-chloronaphthalen-2-ol]"
4,1.05,"Brc1cc(N2CCc3c(nc(OCC45CCCN4CCC5)nc3N3C[C@H]4CC[C@@H](C3)N4)C2)c2ccccc2c1 [Example 111, 4-((1R,5S)-3,8-diazabicyclo[3.2.1]octan-3-yl)-7-(3-bromonaphthalen-1-yl)-2-((tetrahydro-1H-pyrrolizin-7a(5H)-yl)methoxy)-5,6,7,8-tetrahydropyrido[3,4-d]pyrimidine]"
5,7.9,"CN1CCC[C@H]1COc1nc2c(c(N3C[C@H]4CC[C@@H](C3)N4)n1)CCN(c1cccc3c(Cl)cccc13)C2 [Example 15, 4-((1R,5S)-3,8-diazabicyclo[3.2.1]octan-3-yl)-7-(5-chloronaphthalen-1-yl)-2-(((S)-1-methylpyrrolidin-2-yl)methoxy)-5,6,7,8-tetrahydropyrido[3,4-d]pyrimidine]"
6,> 10,"CN1CCC[C@H]1COc1nc2c(c(N3C[C@H]4CC[C@@H](C3)N4)n1)CCN(c1nc(N)cc3ccccc13)C2 [Example 60, 1-(4-((1R,5S)-3,8-diazabicyclo[3.2.1]octan-3-yl)-2-(((S)-1-methylpyrrolidin-2-yl)methoxy)-5,8-dihydropyrido[3,4-d]pyrimidin-7(6H)-yl)isoquinolin-3-amine]"
7,1.8,"CN1CCC[C@H]1COc1nc2c(c(N3CC4CCC(CC#N)(C3)N4)n1)CCN(c1cccc3cccc(Cl)c13)C2 (stereo partly drawn) [Example 42, 2-(3-(7-(8-chloronaphthalen-1-yl)-2-(((S)-1-methylpyrrolidin-2-yl)methoxy)-5,6,7,8-tetrahydropyrido[3,4-d]pyrimidin-4-yl)-3,8-diazabicyclo[3.2.1]octan-1-yl)acetonitrile]"
8,0.654,"c1cc2c(c(N3CCc4c(nc(OCC56CCCN5CCC6)nc4N4C[C@H]5CC[C@@H](C4)N5)C3)c1)C(C1CC1)CC2 (stereo partly drawn) [Example 102, 4-((1R,5S)-3,8-diazabicyclo[3.2.1]octan-3-yl)-7-(3-cyclopropyl-2,3-dihydro-1H-inden-4-yl)-2-((tetrahydro-1H-pyrrolizin-7a(5H)-yl)methoxy)-5,6,7,8-tetrahydropyrido[3,4-d]pyrimidine]"
9,0.852,"COC[C@H]1C[C@@H]2CN(c3nc(OC[C@@H]4CCCN4C)nc4c3CCN(c3cccc5cccc(Cl)c35)C4)C[C@H]1N2 (single isomer, unassigned) [Example 94]"
10,0.71,"CCCCc1cccc2cccc(N3CCc4c(nc(OC[C@@H]5CCCN5C)nc4N4C[C@H]5CC[C@@H](C4)N5)C3)c12 [Example 81, 4-((1R,5S)-3,8-diazabicyclo[3.2.1]octan-3-yl)-7-(8-butylnaphthalen-1-yl)-2-(((S)-1-methylpyrrolidin-2-yl)methoxy)-5,6,7,8-tetrahydropyrido[3,4-d]pyrimidine]"
11,2.49,"FC1(F)CCc2c(N3CCc4c(nc(OCC56CCCN5CCC6)nc4N4C[C@H]5CC[C@@H](C4)N5)C3)cccc21 [Example 101, 4-((1R,5S)-3,8-diazabicyclo[3.2.1]octan-3-yl)-7-(1,1-difluoro-2,3-dihydro-1H-inden-4-yl)-2-((tetrahydro-1H-pyrrolizin-7a(5H)-yl)methoxy)-5,6,7,8-tetrahydropyrido[3,4-d]pyrimidine]"
12,1.17,"CC(C)c1ccccc1N1CCc2c(nc(OCC34CCCN3[C@@H](COC(=O)N(C)C)CC4)nc2N2CC3CCC(C2)N3)C1 (stereo partly drawn) [Example 32, (7a-(((4-((1R,5S)-3,8-diazabicyclo[3.2.1]octan-3-yl)-7-(2-isopropylphenyl)-5,6,7,8-tetrahydropyrido[3,4-d]pyrimidin-2-yl)oxy)methyl)hexahydro-1H-pyrrolizin-3-yl)methyl dimethylcarbamate (trans enantiomers)]"
13,0.756,"c1cc2c(c(N3CCc4c(nc(OCC56CCCN5CCC6)nc4N4C[C@H]5CC[C@@H](C4)N5)C3)c1)CCC2 [Example 104, 4-((1R,5S)-3,8-diazabicyclo[3.2.1]octan-3-yl)-7-(2,3-dihydro-1H-inden-4-yl)-2-((tetrahydro-1H-pyrrolizin-7a(5H)-yl)methoxy)-5,6,7,8-tetrahydropyrido[3,4-d]pyrimidine]"
14,1.76,"CN1CCC[C@H]1COc1nc2c(c(N3C[C@H]4CC[C@@H](C3)N4)n1)CCN(c1cccc3c(F)cccc13)C2 [Example 16, 4-((1R,5S)-3,8-diazabicyclo[3.2.1]octan-3-yl)-7-(5-fluoronaphthalen-1-yl)-2-(((S)-1-methylpyrrolidin-2-yl)methoxy)-5,6,7,8-tetrahydropyrido[3,4-d]pyrimidine]"
15,5.49,"CN1CCC[C@H]1COc1nc2c(c(N3C[C@H]4C[C@@H](C#N)[C@@H](C3)N4)n1)CCN(c1cccc3cccc(Cl)c13)C2 [Example 92, (1R,5S,6R)-3-(7-(8-chloronaphthalen-1-yl)-2-(((S)-1-methylpyrrolidin-2-yl)methoxy)-5,6,7,8-tetrahydropyrido[3,4-d]pyrimidin-4-yl)-3,8-diazabicyclo[3.2.1]octane-6-carbonitrile]"
16,3.13,"CN1CCC[C@H]1COc1nc2c(c(N3CC4CC(O)(C(F)F)C(C3)N4)n1)CCN(c1cccc3cccc(Cl)c13)C2 (stereo partly drawn) [Example 41, 3-(7-(8-chloronaphthalen-1-yl)-2-(((S)-1-methylpyrrolidin-2-yl)methoxy)-5,6,7,8-tetrahydropyrido[3,4-d]pyrimidin-4-yl)-6-(difluoromethyl)-3,8-diazabicyclo[3.2.1]octan-6-ol]"
17,0.0021,"CCc1c(F)ccc2cc(O)cc(N3CCc4c(nc(OC[C@@]56CCCN5C[C@H](F)C6)nc4N4C[C@H]5CC[C@@H](C4)N5)C3)c12 [Example 118, 4-(4-((1R,5S)-3,8-diazabicyclo[3.2.1]octan-3-yl)-2-(((2R,7aS)-2-fluorohexahydro-1H-pyrrolizin-7a-yl)methoxy)-5,6-dihydropyrido[3,4-d]pyrimidin-7(8H)-yl)-5-ethyl-6-fluoronaphthalen-2-ol]"
18,0.0123,"CNC(=O)OC[C@H]1CCC2(COc3nc4c(c(N5CC6CCC(C5)N6)n3)CCN(c3cccc5cccc(C)c35)C4)CCCN12 (stereo partly drawn) [Example 21, (7a-(((4-((1R,5S)-3,8-diazabicyclo[3.2.1]octan-3-yl)-7-(8-methylnaphthalen-1-yl)-5,6,7,8-tetrahydropyrido[3,4-d]pyrimidin-2-yl)oxy)methyl)hexahydro-1H-pyrrolizin-3-yl)methyl methylcarbamate (trans enantiomers)]"

row,SMILES,IC50 [µM]
1,"CCc1cccc2cccc(N3CCc4c(nc(OC[C@@]56CCCN5C[C@H](F)C6)nc4[C@@H]4C[C@H]5CC[C@@H](C4)N5)C3)c12 [Example 122, 4-((1R,3s,5S)-8-azabicyclo[3.2.1]octan-3-yl)-7-(8-ethylnaphthalen-1-yl)-2-(((2R,7aS)-2-fluorotetrahydro-1H-pyrrolizin-7a(5H)-yl)methoxy)-5,6,7,8-tetrahydropyrido[3,4-d]pyrimidine]",0.234
2,"CCc1cccc2cccc(N3CCc4c(nc(OC[C@@]56CCCN5C[C@H](F)C6)nc4C4CC5CCC(N5)C4O)C3)c12 (stereo in doubt) [Example 123, (1S,3R,5R)-3-(7-(8-ethylnaphthalen-1-yl)-2-(((2R,7aS)-2-fluorotetrahydro-1H-pyrrolizin-7a(5H)-yl)methoxy)-5,6,7,8-tetrahydropyrido[3,4-d]pyrimidin-4-yl)-8-azabicyclo[3.2.1]octan-2-ol]",0.508
